According to patent publication US11845748B2, “Bicyclic pyridine N-oxide derivatives useful as a factor XIa inhibitors” (Janssen Pharmaceutica NV, priority 2021, dated 2023):

Target: Factor XIa (Homo sapiens, UniProt P03951)
Assay: Factor XIa inhibition assay utilizing a fluorophore-quencher pair peptide substrate (FLINT)
Type: biochemical
Conditions: end point read at 30 min; 30 min preincubation; 5Fam-KLTRAETV-K5Tamra substrate; read-out: FXIa (EP) IC50
Description: Biological Example 1: Factor XIa Inhibition Assay Utilizing a Fluorophore-Quencher Pair Peptide Substrate
A fluorescence intensity (FLINT) based assay was used to monitor inhibition of Factor XIa. The peptide substrate, 5Fam-KLTRAETV-K5Tamra (purchased from New England Peptide) was chosen based on the […]. Conversion of zymogen […]. The custom peptide used in this assay was based on the Arg146 cleavage site of FXI. The peptide substrate was designed with a fluorophore-quencher pair, where the fluorescence is quenched until FXIa cleaves the 8-mer peptide after the Arg residue. The substrate KM was fit to a substrate inhibition model whereby kcat=0.86 s^−1, KM=12.4 μM, Ki=61.6 μM with an enzymatic efficiency, and kcat/KM=69523 M^−1s^−1.
The Factor XIa FLINT assay was used with the following 5Fam-KLTRAETV-K5Tamra assay buffer: 50 mM Tris, pH 7.5, 100 mM NaCl, 5 mM CaCl2, 0.1 mg/mL BSA, 0.03% CHAPS. Assay buffer was prepared by mixing all ingredients fresh. 5Fam-KLTRAETV-K5Tamra peptide substrate was first prepared at 10 mM in 100% DMSO, then diluted to 3 mM in 100% DMSO. Assay buffer was then added directly to the 3 mM stock of substrate to prepare the 30 μM 2× working concentration (15 μM final concentration). The 2× Factor XIa stock solution was prepared by diluting 6.562 μM stock in 1× assay buffer for a 200 pM working stock solution (100 pM final concentration).
Test compound(s) were run in an 11-point, 3-fold serial dilution with a final top compound concentration of 100 nM. Final DMSO in assay was 2%. FXIa was preincubated with compound for 30-minutes and then substrate was added to initiate the reaction. The assay was run with either end point (EP) reads at 30 min or kinetic (KIN) reads at 5 min intervals over 30 minutes. The time course was linear using 100 μM FXIa greater than 30 minutes. More specifically, the assay was run as follows: • 100 nL of 0.01 mM test compound was dispensed into black 384-well non-binding Greiner BioOne 784900 plate for 0.1 μM final concentration; • 5 μL of 1× assay buffer was dispensed to column 24 (low control) and 5 μL 2× Factor XIa solution was dispensed to columns 1-23 (column 23 high control); • the plate was centrifuged with a “cover” plate at 500 rpm for 1 min the plate was pre-incubated for 30 minutes at room temperature with plate covered; • 5 μL of 2× 5Fam-KLTRAETV-K5Tamra peptide substrate was dispensed into the entire plate, columns 1-24; • the plate was centrifuged with a “cover” plate at 500 rpm for 1 min; • the plate was read monitoring fluorescence intensity on the BMG PHERAStar at room temperature, using fluorescence module 485 nm/520 nm.
Percent inhibition (IC50) curves were generated per compound tested, and data was analyzed using a 4-parameter logistic fit using GeneData Screener. The relative fluorescence unit (RFU) values were normalized to percent inhibition using the following equation: % inhibition=((HC−LC)−(compound−LC)/(HC−LC))*100 where LC—low control=mean signal of no Factor XIa or 100% inhibition of Factor XIa; HC—high control=mean signal of Factor XIa+5Fam-KLTRAETV-K5Tamra peptide substrate with DMSO only.
An 11-point dose response curve for the test compound(s) was generated using GENDATA to determine IC50 value based on the following equation: Y=Bottom+(Top−Bottom)/(1+10^((log IC50−X)*HillSlope))
where Y is the % inhibition in the presence of X inhibitor concentration, Top=high control=mean signal of Factor XIa+5Fam-KLTRAETV-K5Tamra peptide substrate with DMSO only; Bottom=low control−mean signal of no Factor XIa or 100% inhibition of Factor XIa; HillSlope—Hill coefficient; and IC50=concentration of compound with 50% inhibition in relation to top/high control. […]

Chain of Factor XIa (P03951 388-625 limits assumed): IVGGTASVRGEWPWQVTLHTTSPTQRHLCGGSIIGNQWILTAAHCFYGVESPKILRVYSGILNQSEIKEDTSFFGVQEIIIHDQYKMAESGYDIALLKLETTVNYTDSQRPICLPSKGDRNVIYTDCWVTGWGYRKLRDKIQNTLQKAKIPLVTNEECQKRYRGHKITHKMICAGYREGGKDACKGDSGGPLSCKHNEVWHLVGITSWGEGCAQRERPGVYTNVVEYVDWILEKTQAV
Chain of Factor XIa (P03951 19-387 partner limits assumed): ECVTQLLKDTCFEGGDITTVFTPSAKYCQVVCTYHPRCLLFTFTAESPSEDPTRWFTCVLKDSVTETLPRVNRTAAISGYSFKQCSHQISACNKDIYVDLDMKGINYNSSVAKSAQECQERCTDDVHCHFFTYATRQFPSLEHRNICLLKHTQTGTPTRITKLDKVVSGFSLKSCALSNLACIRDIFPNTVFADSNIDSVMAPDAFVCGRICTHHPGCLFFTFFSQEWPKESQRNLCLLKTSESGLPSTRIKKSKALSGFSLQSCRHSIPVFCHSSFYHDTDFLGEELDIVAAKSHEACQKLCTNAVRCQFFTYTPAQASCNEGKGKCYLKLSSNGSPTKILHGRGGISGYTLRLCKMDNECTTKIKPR

SMILES | IC50 [nM]
O=C(O)c1cccc(-c2cnn(C3CCc4cc(-c5cc(Cl)ccc5-n5cnnn5)c[n+]([O-])c43)c2)c1 (racemic) [ID No. 6, 7-(4-(3-Carboxyphenyl)-1H-pyrazol-1-yl)-3-(5-chloro-2-(1H-tetrazol-1-yl)phenyl)-6,7-dihydro-5H-cyclopenta[b]pyridine 1-oxide] | 79
Nc1ccc(-c2cnn(C3CCc4cc(-c5cc(Cl)ccc5-n5cnnn5)c[n+]([O-])c43)c2)c(F)n1 (racemic) [ID No. 10, 7-(4-(6-Amino-2-fluoropyridin-3-yl)-1H-pyrazol-1-yl)-3-(5-chloro-2-(1H-tetrazol-1-yl)phenyl)-6,7-dihydro-5H-cyclopenta[b]pyridine 1-oxide] | 27
O=C(O)c1ccc2nn(C3CCc4cc(-c5cc(Cl)ccc5-n5cnnn5)c[n+]([O-])c43)cc2c1 (centres unmarked) [ID No. 1, 7-(5-Carboxy-2H-indazol-2-yl)-3-(5-chloro-2-(1H-tetrazol-1-yl)phenyl)-6,7-dihydro-5H-cyclopenta[b]pyridine 1-oxide] | 2850
O=C(O)c1ccc(-c2ccn(C3CCc4cc(-c5cc(Cl)ccc5-n5cnnn5)c[n+]([O-])c43)n2)cc1 (racemic) [ID No. 3, 7-(3-(4-Carboxyphenyl)-1H-pyrazol-1-yl)-3-(5-chloro-2-(1H-tetrazol-1-yl)phenyl)-6,7-dihydro-5H-cyclopenta[b]pyridine 1-oxide] | 320
COC(=O)Nc1ccc(-c2cnn([C@@H]3CCc4cc(-c5c(-n6cnnn6)ccc(Cl)c5F)c[n+]([O-])c43)c2)cc1 [ID No. 9, (R)-3-(3-chloro-2-fluoro-6-(1H-tetrazol-1-yl)phenyl)-7-(4-(4-((methoxycarbonyl)amino)phenyl)-1H-pyrazol-1-yl)-6,7-dihydro-5H-cyclopenta[b]pyridine 1-oxide] | 3
COC(=O)Nc1ccc(-c2cn(C3CCc4cc(-c5c(-n6cnnn6)ccc(Cl)c5F)c[n+]([O-])c43)nc2C)cc1 (single isomer, unassigned) [ID No. 14, (S*)-3-(3-Chloro-2-fluoro-6-(1H-tetrazol-1-yl)phenyl)-7-(4-(4-((methoxycarbonyl)amino)phenyl)-3-methyl-1H-pyrazol-1-yl)-6,7-dihydro-5H-cyclopenta[b]pyridine 1-oxide] | 16
COC(=O)Nc1ccc(-c2cnn(C3CCc4cc(-c5cc(Cl)ccc5-n5cnnn5)c[n+]([O-])c43)c2)cc1 (racemic) [ID No. 7, 3-(5-Chloro-2-(1H-tetrazol-1-yl)phenyl)-7-(4-(4-((methoxycarbonyl)amino)phenyl)-1H-pyrazol-1-yl)-6,7-dihydro-5H-cyclopenta[b]pyridine 1-oxide] | 9
COC(=O)Nc1ccc(-c2cnn(C3CCc4cc(-c5c(-n6cnnn6)ccc(Cl)c5F)c[n+]([O-])c43)c2)cc1 (single isomer, unassigned) [ID No. 8, (R*)3-(3-Chloro-2-fluoro-6-(1H-tetrazol-1-yl)phenyl)-7-(4-(4-((methoxycarbonyl)amino)phenyl)-1H-pyrazol-1-yl)-6,7-dihydro-5H-cyclopenta[b]pyridine 1-oxide] | 3260
O=C(O)c1cccc(-c2ccn(C3CCc4cc(-c5cc(Cl)ccc5-n5cnnn5)c[n+]([O-])c43)n2)c1 (racemic) [ID No. 4, 7-(3-(3-Carboxyphenyl)-1H-pyrazol-1-yl)-3-(5-chloro-2-(1H-tetrazol-1-yl)phenyl)-6,7-dihydro-5H-cyclopenta[b]pyridine 1-oxide] | 1010
Nc1ccc(-c2cnn(C3CCc4cc(-c5c(-n6cnnn6)ccc(Cl)c5F)c[n+]([O-])c43)c2)c(F)n1 (racemic) [ID No. 11, 7-(4-(6-Amino-2-fluoropyridin-3-yl)-1H-pyrazol-1-yl)-3-(3-chloro-2-fluoro-6-(1H-tetrazol-1-yl)phenyl)-6,7-dihydro-5H-cyclopenta[b]pyridine 1-oxide] | 11
COC(=O)Nc1ccc(-c2ccn(C3CCc4cc(-c5cc(Cl)ccc5-n5cnnn5)c[n+]([O-])c43)n2)cc1 (racemic) [ID No. 5, 3-(5-Chloro-2-(1H-tetrazol-1-yl)phenyl)-7-(3-(4-((methoxycarbonyl)amino)phenyl)-1H-pyrazol-1-yl)-6,7-dihydro-5H-cyclopenta[b]pyridine 1-oxide] | 109
COC(=O)Nc1ccc(-c2cnn(C3CCc4cc(-c5cc(Cl)ccc5OCC(F)(F)F)c[n+]([O-])c43)c2)cc1 (racemic) [ID No. 15, 3-(5-Chloro-2-(2,2,2-trifluoroethoxy)phenyl)-7-(4-(4-((methoxycarbonyl)amino)phenyl)-1H-pyrazol-1-yl)-6,7-dihydro-5H-cyclopenta[b]pyridine 1-oxide] | 1690
COC(=O)Nc1ccc(-c2cn(C3CCc4cc(-c5c(-n6cnnn6)ccc(Cl)c5F)c[n+]([O-])c43)nc2C)cc1 (single isomer, unassigned) [ID No. 13, (R*)3-(3-Chloro-2-fluoro-6-(1H-tetrazol-1-yl)phenyl)-7-(4-(4-((methoxycarbonyl)amino)phenyl)-3-methyl-1H-pyrazol-1-yl)-6,7-dihydro-5H-cyclopenta[b]pyridine 1-oxide] | 837
Nc1ccc(-c2cnn(C3CCc4cc(-c5cc(Cl)ccc5-n5cnnn5)c[n+]([O-])c43)c2)cc1 (racemic) [ID No. 12, 7-(4-(4-Aminophenyl)-1H-pyrazol-1-yl)-3-(5-chloro-2-(1H-tetrazol-1-yl)phenyl)-6,7-dihydro-5H-cyclopenta[b]pyridine 1-oxide] | 220
